Target: Substance-P receptor (Homo sapiens, UniProt P25103)
Test: Binding affinity was carried out with NK 1 receptors from U-373MG human astrocytoma cell line
Format: cell-based
Conditions: u-373mg atcc

Sequence of Substance-P receptor (P25103 whole entry): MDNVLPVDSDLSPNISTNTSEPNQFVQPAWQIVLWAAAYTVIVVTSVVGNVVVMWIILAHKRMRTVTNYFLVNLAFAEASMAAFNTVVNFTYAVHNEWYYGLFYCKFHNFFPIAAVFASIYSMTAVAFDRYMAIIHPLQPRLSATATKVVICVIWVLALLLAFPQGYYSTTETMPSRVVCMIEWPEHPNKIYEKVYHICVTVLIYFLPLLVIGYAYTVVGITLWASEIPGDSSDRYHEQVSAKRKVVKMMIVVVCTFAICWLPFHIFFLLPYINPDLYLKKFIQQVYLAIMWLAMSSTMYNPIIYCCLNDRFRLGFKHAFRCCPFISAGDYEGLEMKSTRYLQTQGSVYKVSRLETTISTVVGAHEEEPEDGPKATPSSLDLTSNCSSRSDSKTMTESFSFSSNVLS

Row | SMILES | Log Ki
1 | C=C1CN2CCC[C@H](NCc3ccccc3OC)[C@@]2(c2ccccc2)C1 | < -7
2 | COc1ccccc1CN[C@H]1CCCN2CCC[C@]12c1ccccc1 | < -7

— ChEMBL document CHEMBL1129716, “Indolizidine derivatives as potential substance P antagonists” (Bioorg Med Chem Lett, 1996)
